Results as given in a melting point compilation (Tetko et al.).

Structure (SMILES) | melting point
CCOC(=O)/C(C#N)=C/Nc1ccc(F)cc1F | 142 to 144 °C
COC(=O)c1ncccc1O | 76 to 78 °C
Nc1nnc(-c2ccccc2)o1 | 243 to 245 °C
COc1ccc(-c2n[nH]c(=O)c3ccccc23)cc1F | 269 to 271 °C
Cc1ccc(OCc2nc(C(=O)NC3=NCCS3)cs2)cc1 | 200 to 202 °C
O=C1c2ccc(S(=O)(=O)Cl)cc2CCC1Cl (centres undefined) | 124 to 126 °C
NNC(=O)CC1CCCCC1 | 119 to 121 °C
CC1(c2cccc(-n3cnnn3)c2)NC(=O)NC1=O (centres undefined) | 190 to 192 °C
O=C(O)C12CC3CC(CC(F)(C3)C1)C2 | 109 to 111 °C
NC(C(=O)O)c1ccc2ccccc2c1 (centres undefined) | 251 to 253 °C
O=Cc1ccc(F)c2cccnc12 | 113 to 115 °C
O=C(O)CC(NC(=O)OCc1ccccc1)c1ccccc1 (centres undefined) | 124 to 126 °C
CC(C)c1cccc(S(N)(=O)=O)c1 | 74 to 76 °C
S=C1CCCCN1 | 92 to 94 °C
CCn1ccnc(N)c1=O | 119 to 121 °C
COc1ccc(N)cc1OCC1CCCO1 (centres undefined) | 85 to 87 °C
N#Cc1cnn(-c2cccc(C(=O)O)c2)c1N | 286 to 288 °C
Cc1n[nH]c(C(N)=O)n1 | 222 to 224 °C
CC(=O)NCCc1ccc(S(N)(=O)=O)s1 | 144 to 146 °C
CC(CO)NC(=O)C1=Cc2cc(Br)ccc2OC1 (centres undefined) | 157 to 159 °C
O=C(Nc1cn[nH]c1)c1ccncc1 | 239 to 241 °C
CCN(CC)C(=O)Nc1ccc(C(C)=O)cc1 | 113 to 115 °C
NC(=O)CNC(=O)c1ccc(O)cc1 | 264 to 266 °C
CCN(C)S(=O)(=O)c1c(C)n[nH]c1C | 61 to 63 °C

Structure (SMILES) | melting point
O=C(O)c1ccccc1N1CCCC1=O | 197 to 199 °C
CN(C)C(=O)c1cnc(Cl)c(Cl)c1 | 89 to 91 °C
Cc1cc2ncc3c(n2n1)C(=O)OCC3 | 200 to 202 °C
Nc1cccc(Cn2[nH]c(=O)ccc2=O)c1 | 163 to 165 °C
N#Cc1ccc(F)c(CN2CCCC2=O)c1 | 92 to 94 °C
Nc1cc(=O)[nH]c(=O)n1Cc1ccc(Cl)cc1 | 279 to 281 °C
CCC(C#N)NC(=O)OC(C)(C)C (centres undefined) | 78 to 80 °C
Nc1ccc(Br)cc1O | 138 to 140 °C
OC1CCN(c2cnnc3ccccc23)CC1 | 84 to 86 °C
Cc1cccc(C)c1CC(=O)O | 117 to 119 °C
NNc1ccncc1Cl | 158 to 160 °C
Cc1c(N=C=S)c(=O)n(-c2ccccc2)n1C | 145 to 147 °C
Cc1sc(N)nc1-c1c[nH]c2ncccc12 | 240 to 242 °C
Nc1ccc(C=O)cc1[N+](=O)[O-] | 173 to 175 °C
Cc1cc(S(N)(=O)=O)ccc1[N+](=O)[O-] | 131 to 133 °C
O=C(O)c1c(Cl)ccc(S(=O)(=O)Cl)c1Cl | 168 to 170 °C
NC(=O)COc1cccc(C(=O)O)c1 | 223 to 225 °C
CCNc1nc(S)nc2ccccc12 | 283 to 285 °C
C=CCSc1nc2ccccc2[nH]1 | 139 to 141 °C
NC1(c2nc(C(=O)O)c[nH]2)CCC1 | 273 to 275 °C
O=[N+]([O-])c1c(NC2CC2)cccc1NC1CC1 | 116 to 118 °C
CC(Cl)C(=O)NC(=O)NC1CC1 (centres undefined) | 88 to 90 °C
COc1cccc(-c2cc(N)n(C)n2)c1 | 94 to 96 °C
Cc1nc(-c2cccc(NC(=O)OCC(F)(F)F)c2)cs1 | 94 to 96 °C

Structure (SMILES) | melting point
Nc1ccc(S(=O)(=O)N2CCCCCC2)cc1 | 105 to 107 °C
CCOC(=O)c1cc(C)sc1NC(=O)CCl | 104 to 106 °C
Cc1oc(Cn2cc(Br)cn2)cc1C(=O)O | 159 to 161 °C
O=C(NCc1ccccc1F)c1ccc(-n2ccnc2S)cc1 | 211 to 213 °C
Cc1noc(-c2ccccc2N)n1 | 120 to 122 °C
Nc1ccc(-c2nc3cc(F)ccc3[nH]2)cc1 | 194 to 196 °C
COc1ccccc1C(=O)c1ccccn1 | 49 to 51 °C
O=c1cc(CCl)occ1O | 166 to 168 °C
Cc1cc(C(=O)C(C)Cl)c(C)n1-c1ccc(OC(F)F)cc1 (centres undefined) | 92 to 96 °C
COC(=O)/C=C/c1ccc(S(=O)(=O)Cl)cc1 | 112 to 114 °C
O=C(O)c1ccc(-c2nc(C3CC3)no2)cc1 | 241 to 243 °C
CSc1ncc(C(N)=O)c(N)n1 | 250 to 252 °C
CN(C)c1ccc(-c2nc3ccccc3s2)cc1 | 171 to 173 °C
Cc1[nH]c(=O)sc1S(=O)(=O)N1CCCC1C(=O)O (centres undefined) | 247 to 249 °C
Clc1cncc(N2CCCC2)n1 | 53 to 55 °C
CNc1ncc(Br)cn1 | 116 to 118 °C
Cc1cc(C(N)C(=O)O)cc(C)c1O (centres undefined) | 203 to 205 °C
O=C(O)c1cccc(Sc2cccc(Br)c2)n1 | 113 to 115 °C
Brc1nn2cc(-c3ccccc3)nc2s1 | 186 to 188 °C
Nc1cccc(C#Cc2ccccc2)c1 | 47 to 49 °C
Cc1cnn(-c2ccc(N)cc2F)c1 | 57 to 59 °C
O=C1NC(=O)C2(CCSCC2)N1 | 265 to 267 °C
Oc1ncnc(Cl)c1I | 274 to 276 °C
Cc1ccc(C(=O)Nc2ccccc2)cc1N | 151 to 153 °C

Structure (SMILES) | melting point
O=C(O)C=Cc1ccc(OCc2ccncc2)cc1 | 298 to 300 °C
Nc1cc(Cl)c(I)cn1 | 99 to 101 °C
O=C(O)c1cn(-c2ccccc2)nc1-c1cccnc1 | 238 to 240 °C
O=S(=O)(c1ccc2[nH]c(S)nc2c1)N1CCOCC1 | 285 to 287 °C
O=S(=O)(NC1CCCNC1)c1ccccc1 (centres undefined) | 133 to 135 °C
COC(=O)C(C)(O)c1ccncc1 (centres undefined) | 104 to 106 °C
CC1COCCN1c1ccc(N)cc1 (centres undefined) | 89 to 91 °C
O=C1NCc2ccc(F)cc21 | 203 to 205 °C
COc1ccc(CCl)cc1S(C)(=O)=O | 118 to 120 °C
COc1ccccc1Nc1nnc(S)s1 | 182 to 184 °C
OC(c1cccc(F)c1)c1ccccn1 (centres undefined) | 78 to 80 °C
CCNC(=O)c1ccc(O)cc1 | 109 to 111 °C
O=C(c1ccncc1)c1cc(F)ccc1F | 53 to 55 °C
Cc1cc([N+](=O)[O-])sc1Br | 37 to 39 °C
Cc1nc(-c2ccco2)ccc1C(=O)O | 174 to 176 °C
Cc1c(CCC(=O)O)c(=O)[nH]c2c1c(=O)[nH]n2C | 304 to 306 °C
Cc1nn(C)cc1CCC(=O)O | 114 to 116 °C
O=C1NCCc2ccc(S(=O)(=O)Cl)cc21 | 188 to 190 °C
O=C(O)c1cc2c(cc1O)OCO2 | 189 to 191 °C
O=C(O)C1=CCCCO1 | 66 to 68 °C
Nc1cc(C(F)(F)F)ccc1-n1cccn1 | 40 to 48 °C
NC(=NO)c1cccc([N+](=O)[O-])c1 | 182 to 184 °C
Cc1ccc(-n2nnnc2S)c(C)c1 | 110 to 112 °C
O=C(O)Cc1cc(=O)n(-c2ccccc2)[nH]1 | 98 to 102 °C

Structure (SMILES) | melting point
Cc1cc2n(n1)C(=O)CC(=O)N2 | 219 to 221 °C
O=C(O)c1c[nH]nc1-c1ccccc1F | 288 to 290 °C
COc1ccc(CN)cc1NC(C)=O | 115 to 117 °C
CC(C)(C)OC(=O)NCCCC(=O)NN | 114 to 116 °C
O=c1[nH]c(Nc2ccccc2)cc2ccccc12 | 191 to 193 °C
O=C1CCC2(C(=O)O)Sc3ccccc3N12 (centres undefined) | 225 to 227 °C
CNCC(O)COc1ccc(C(F)(F)F)cc1 (centres undefined) | 85 to 87 °C
COCCCN1C(=O)c2ccc(C(=O)O)cc2C1=O | 147 to 149 °C
O=C(O)Cc1ccon1 | 84 to 86 °C
N#Cc1cc(F)c(C(=O)O)c(F)c1 | 189 to 191 °C
Cc1c(C(=O)O)cnn1CC(C)C | 109 to 111 °C
O=C(CCN1CCOCC1)c1cc2ccccc2o1 | 53 to 55 °C
CC(O)c1ccccc1-c1ccccc1 (centres undefined) | 104 to 106 °C
NNS(=O)(=O)Cc1ccc([N+](=O)[O-])cc1 | 139 to 141 °C
CN(C)Cc1nc(S)c2ccccc2n1 | 131 to 133 °C
O=C(O)C1CCCCC1c1nc2cc(Cl)ccc2[nH]1 (centres undefined) | 199 to 201 °C
Nc1ccc(-n2cc[nH]c2=O)cc1 | 217 to 219 °C
Cn1cc(S(N)(=O)=O)c2ccccc21 | 194 to 196 °C
Nc1cccc(S(=O)(=O)Nc2cccc(C(F)(F)F)c2)c1 | 98 to 100 °C
O=C(CCl)N(Cc1nnc(-c2ccc(Cl)cc2)o1)C1CC1 | 102 to 104 °C
O=C(CCl)Nc1cccc(Cl)c1 | 70 to 72 °C
O=C1/C(=C\C=C\c2ccco2)CCC/C1=C\C=C\c1ccco1 | 162 to 164 °C
CCCCCCCCCCCCSc1nc2ccccc2c(=O)n1-c1ccccc1 | 62 to 64 °C
COC(=O)c1ccc(Oc2ccc([N+](=O)[O-])cc2)nn1 | 194 to 196 °C

Structure (SMILES) | melting point
O=Cc1ccc(-c2ccccc2[N+](=O)[O-])s1 | 112 to 114 °C
CCOc1cccc(C=CC(=O)O)c1OC1CCCC1 | 133 to 135 °C
Brc1cnc2c(c1)NCCO2 | 149 to 151 °C
NC(=O)CC(NS(=O)(=O)c1ccccc1F)C(=O)O (centres undefined) | 165 to 167 °C
O=C(O)c1cccnc1Sc1ccc2c(c1)OCCO2 | 228 to 230 °C
CCC1CSC(Nc2ccc(Cl)c(Cl)c2)=N1 (centres undefined) | 107 to 109 °C
Cc1ccc(F)c(C(=O)O)c1N | 139 to 141 °C
Cc1nn(-c2ccc(F)cc2)c(C)c1CC(=O)O | 171 to 173 °C
CCOc1ccc(S(=O)(=O)Cl)c2ccccc12 | 98 to 100 °C
Cc1nc2c(Cl)cccc2n1O | 239 to 241 °C
Nc1cnn(CC(=O)Nc2cccnc2)c1 | 117 to 119 °C
Cn1nc(-c2ccccc2)c(C=O)c1Cl | 61 to 63 °C
CC(C)n1ncc(C(N)=O)c1N | 194 to 196 °C
Fc1cc2nc[nH]c2cc1F | 159 to 161 °C
Cc1n[nH]c(C)c1CCO | 122 to 124 °C
Nc1ccc(CCC(=O)O)nc1 | 113 to 115 °C
CC(C)C(=O)Nc1cccc(N)c1 | 119 to 121 °C
O=C(Nc1cn[nH]c1)OCC(F)(F)F | 151 to 153 °C
Cc1ccccc1-c1cnc(N)s1 | 119 to 121 °C
O=C(O)c1csc(-c2ccccc2F)n1 | 159 to 161 °C
O=C(O)c1cc(S(=O)(=O)Cl)cs1 | 139 to 141 °C
O=C(O)c1cnc(Cc2ccc(F)cc2)s1 | 178 to 180 °C
COC(=O)c1cc(Cl)c(=O)[nH]c1C | 239 to 241 °C
C1CN(CCC23CC4CC(CC(C4)C2)C3)CCN1 | 76 to 78 °C
